These compounds were tested against T1, F508del (Homo sapiens, UniProt P13569, DEL508-508) (assay: Protocol 2: FRET membrane potential optical assay (VIPR), identification of correction compounds). Conditions: F508del CFTR modulator activity; compounds of Table 1; read-out: EC30.
T1 construct: expressed in transfected cells
T1 sequence (P13569 with tags, fused parts or gaps DEL508-508): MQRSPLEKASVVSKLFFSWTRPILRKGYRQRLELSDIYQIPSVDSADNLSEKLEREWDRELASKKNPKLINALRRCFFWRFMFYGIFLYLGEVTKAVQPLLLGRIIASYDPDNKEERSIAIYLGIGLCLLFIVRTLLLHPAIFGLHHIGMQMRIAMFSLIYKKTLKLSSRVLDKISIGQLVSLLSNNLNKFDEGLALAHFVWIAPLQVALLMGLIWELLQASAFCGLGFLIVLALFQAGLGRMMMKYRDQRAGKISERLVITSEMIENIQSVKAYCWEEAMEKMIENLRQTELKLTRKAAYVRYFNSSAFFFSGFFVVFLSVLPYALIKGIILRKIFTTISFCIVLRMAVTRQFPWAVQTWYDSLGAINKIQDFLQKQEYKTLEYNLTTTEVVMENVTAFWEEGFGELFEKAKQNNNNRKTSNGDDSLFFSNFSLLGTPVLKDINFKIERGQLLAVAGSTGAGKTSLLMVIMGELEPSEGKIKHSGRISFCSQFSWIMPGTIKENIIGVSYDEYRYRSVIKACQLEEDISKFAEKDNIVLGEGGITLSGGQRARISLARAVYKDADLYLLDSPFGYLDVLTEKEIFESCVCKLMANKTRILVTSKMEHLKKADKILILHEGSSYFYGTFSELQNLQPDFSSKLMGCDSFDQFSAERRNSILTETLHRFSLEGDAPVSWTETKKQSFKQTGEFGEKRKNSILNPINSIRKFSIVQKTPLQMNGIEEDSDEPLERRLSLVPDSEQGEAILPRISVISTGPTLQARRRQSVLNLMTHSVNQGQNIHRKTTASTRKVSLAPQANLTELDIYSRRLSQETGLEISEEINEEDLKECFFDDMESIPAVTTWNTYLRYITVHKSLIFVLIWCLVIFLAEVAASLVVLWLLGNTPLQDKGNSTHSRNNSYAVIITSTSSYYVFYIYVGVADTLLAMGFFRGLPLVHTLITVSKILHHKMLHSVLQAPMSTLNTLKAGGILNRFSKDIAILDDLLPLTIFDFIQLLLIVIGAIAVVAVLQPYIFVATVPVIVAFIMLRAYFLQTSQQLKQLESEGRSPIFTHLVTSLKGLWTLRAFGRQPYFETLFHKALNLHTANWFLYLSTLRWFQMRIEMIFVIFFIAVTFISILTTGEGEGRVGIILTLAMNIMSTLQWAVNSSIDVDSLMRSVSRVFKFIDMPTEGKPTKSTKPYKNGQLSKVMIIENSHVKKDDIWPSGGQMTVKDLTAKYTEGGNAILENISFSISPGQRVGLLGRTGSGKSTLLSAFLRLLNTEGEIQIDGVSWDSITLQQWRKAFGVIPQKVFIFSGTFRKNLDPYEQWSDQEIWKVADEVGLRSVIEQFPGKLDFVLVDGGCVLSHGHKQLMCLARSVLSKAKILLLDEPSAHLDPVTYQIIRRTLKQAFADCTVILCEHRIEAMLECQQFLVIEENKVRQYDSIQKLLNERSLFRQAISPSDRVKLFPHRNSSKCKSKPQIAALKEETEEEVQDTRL
Format: cell-based
Source text: Membrane potential optical methods for assaying F508del modulation properties of compounds.
These voltage sensitive assays are based on the change in fluorescence resonant energy transfer (FRET) between the membrane-soluble, voltage-sensitive dye, DiSBAC2(3), and a fluorescent phospholipid, CC2-DMPE, which is attached to the outer leaflet of the plasma membrane and acts as a FRET donor. Changes in membrane potential (Vm) cause the negatively charged DiSBAC2(3) to redistribute across the plasma membrane and the amount of energy transfer from CC2-DMPE changes accordingly. The changes in fluorescence emission were monitored using VIPR™ II, which is an integrated liquid handler and fluorescent detector designed to conduct cell-based screens in 96- or 384-well microtiter plates.
To identify small molecules that correct the trafficking defect associated with F508del; a single-addition HTS assay format was developed. The cells were incubated in serum-free medium for 16 hrs at 37° C. in the presence or absence (negative control) of test compound. As a positive control, cells plated in 384-well plates were incubated for 16 hrs at 27° C. to “temperature-correct” F508del. The cells were subsequently rinsed 3× with Krebs Ringers solution and loaded with the voltage-sensitive dyes. To activate F508del, 10 μM forskolin and the CFTR potentiator, genistein (20 μM), were added along with Cl^−-free medium to each well. The addition of Cl^−-free medium promoted Cl^− efflux in response to F508del activation and the resulting membrane depolarization was optically monitored using the FRET-based voltage-sensor dyes.
• Bath Solution #1: (in mM) NaCl 160, KCl 4.5, CaCl2 2, MgCl2 1, HEPES 10, pH 7.4 with NaOH. • Chloride-free bath solution: Chloride salts in Bath Solution #1 (above) are substituted with gluconate salts. • CC2-DMPE: Prepared as a 10 mM stock solution in DMSO and stored at −20° C. • DiSBAC2(3): Prepared as a 10 mM stock in DMSO and stored at −20° C. Cell Culture
NIH3T3 mouse fibroblasts stably expressing F508del are used for optical measurements of membrane potential. The cells are maintained at 37° C. in 5% CO2 and 90% humidity in Dulbecco's modified Eagle's medium supplemented with 2 mM glutamine, 10% fetal bovine serum, 1×NEAA, β-ME, 1× pen/strep, and 25 mM HEPES in 175 cm^2 culture flasks. For all optical assays, the cells were seeded at 30,000/well in 384-well matrigel-coated plates and cultured for 2 hrs at 37° C. before culturing at 27° C. for 24 hrs for the potentiator assay. For the correction assays, the cells are cultured at 27° C. or 37° C. with and without compounds for 16-24 hours.
For CC1CCC(Oc2cccc(S(=O)(=O)NC(=O)c3cccnc3N3CC(C)CC3(C)C)n2)CC1 (centres unmarked) [Compound 2336, N—[[6-(4-methylcyclohexoxy)-2-pyridyl]sulfonyl]-2-(2,2,4-trimethylpyrrolidin-1-yl)pyridine-3-carboxamide], the EC30 was < 3 µM.
For CC(C)COc1cc(F)cc(-c2ncc(C(=O)NS(=O)(=O)c3cccc(N)n3)c(N3C[C@@H](C)CC3(C)C)n2)c1 [Compound 2121, N-[(6-amino-2-pyridyl)sulfonyl]-2-(3-fluoro-5-isobutoxy-phenyl)-4-[(4S)-2,2,4-trimethylpyrrolidin-1-yl]pyrimidine-5-carboxamide], the EC30 was < 3 µM.
In the case of Cc1ccc(-c2ccc(C(=O)NS(=O)(=O)c3ccc[nH]c3=O)c(N3C[C@@H](C)CC3(C)C)n2)cc1F [Compound 2084, 6-(3-fluoro-4-methyl-phenyl)-N-[(2-oxo-1H-pyridin-3-yl)sulfonyl]-2-[(4S)-2,2,4-trimethylpyrrolidin-1-yl]pyridine-3-carboxamide], the EC30 is reported as < 3 µM.
With COc1cc(C)c(-c2ccc(C(=O)NS(=O)(=O)c3cccnc3N)c(N3C[C@@H](C)CC3(C)C)n2)c(C)c1 [Compound 2607, N-[(2-amino-3-pyridyl)sulfonyl]-6-(4-methoxy-2,6-dimethyl-phenyl)-2-[(4S)-2,2,4-trimethylpyrrolidin-1-yl]pyridine-3-carboxamide] the EC30 was < 3 µM.
With CC(C)COc1cc(F)cc(-c2ccc(C(=O)NS(=O)(=O)c3cccc(N)n3)c(N3CCC(C)CC(C)C3)n2)c1 (centres unmarked) [Compound 2479, N-[(6-amino-2-pyridyl)sulfonyl]-2-(3,5-dimethylazepan-1-yl)-6-(3-fluoro-5-isobutoxy-phenyl)pyridine-3-carboxamide] the EC30 was < 3 µM.
With CC1CN(c2ncccc2C(=O)NS(=O)(=O)c2cccc(Nc3cnc4ccccc4c3)n2)C(C)(C)C1 (centres unmarked) [Compound 2449, N—[[6-(3-quinolylamino)-2-pyridyl]sulfonyl]-2-(2,2,4-trimethylpyrrolidin-1-yl)pyridine-3-carboxamide] the EC30 was < 3 µM.
Cc1ccc(-c2ccc(C(=O)NS(=O)(=O)c3cccnc3N)c(N3C[C@@H](C)CC3(C)C)n2)cc1F [Compound 2345, N-[(2-amino-3-pyridyl)sulfonyl]-6-(3-fluoro-4-methyl-phenyl)-2-[(4S)-2,2,4-trimethylpyrrolidin-1-yl]pyridine-3-carboxamide] was tested, and the EC30 was < 3 µM.
In the case of CCOc1cc(F)cc(-c2ccc(C(=O)NS(=O)(=O)c3ccc[nH]c3=O)c(N3C[C@@H](C)CC3(C)C)n2)c1 [Compound 2278, 6-(3-ethoxy-5-fluoro-phenyl)-N-[(2-oxo-1H-pyridin-3-yl)sulfonyl]-2-[(4S)-2,2,4-trimethylpyrrolidin-1-yl]pyridine-3-carboxamide], the EC30 is reported as < 3 µM.
Nc1cccc(S(=O)(=O)NC(=O)c2cccnc2N2CCCC(c3ccccc3)C2)n1 (single isomer, unassigned) [Compound 2615] gave an EC30 of 3 to 10 µM.
With CCOc1ccc(Nc2cccc(S(=O)(=O)NC(=O)c3cccnc3N3CC(C)CC3(C)C)n2)cc1 (centres unmarked) [Compound 2214, N—[[6-(4-ethoxyanilino)-2-pyridyl]sulfonyl]-2-(2,2,4-trimethylpyrrolidin-1-yl)pyridine-3-carboxamide] the EC30 was < 3 µM.
For CC1CN(c2ncccc2C(=O)NS(=O)(=O)c2cccc(N3CCN(C4CCCCC4)CC3)n2)C(C)(C)C1 (centres unmarked) [Compound 2601, N—[[6-(4-cyclohexylpiperazin-1-yl)-2-pyridyl]sulfonyl]-2-(2,2,4-trimethylpyrrolidin-1-yl)pyridine-3-carboxamide], the EC30 was 3 to 10 µM.
CC1CN(c2ncccc2C(=O)NS(=O)(=O)c2cccc(NCc3cccc(F)c3F)n2)C(C)(C)C1 (centres unmarked) [Compound 2640, N—[[6-[(2,3-difluorophenyl)methylamino]-2-pyridyl]sulfonyl]-2-(2,2,4-trimethylpyrrolidin-1-yl)pyridine-3-carboxamide] was tested, and the EC30 was < 3 µM.
In the case of C[C@@H]1CN(c2nc(-c3cccc4c3OCC4)ccc2C(=O)NS(=O)(=O)c2cccnc2N)C(C)(C)C1 [Compound 2163, N-[(2-amino-3-pyridyl)sulfonyl]-6-(2,3-dihydrobenzofuran-7-yl)-2-[(4S)-2,2,4-trimethylpyrrolidin-1-yl]pyridine-3-carboxamide], the EC30 is reported as < 3 µM.
With C[C@@H]1CN(c2nc(-c3cccc(Cl)c3)ccc2C(=O)NS(=O)(=O)c2cccnc2N)C(C)(C)C1 [Compound 2183, N-[(2-amino-3-pyridyl)sulfonyl]-6-(3-chlorophenyl)-2-[(4S)-2,2,4-trimethylpyrrolidin-1-yl]pyridine-3-carboxamide] the EC30 was < 3 µM.

Same assay, conditions: Table 3; compounds of Table 1 as modulators of CFTR activity; protocol not stated
With COc1ncccc1S(=O)(=O)NC(=O)c1ccc(C2(C)CC2)nc1Oc1c(C)cc(C)cc1C [Compound 365, N-[(2-methoxy-3-pyridyl)sulfonyl]-6-(1-methylcyclopropyl)-2-(2,4,6-trimethylphenoxy)pyridine-3-carboxamide] the EC30 was “+++ (“+++” means <3 uM)”.
With CC(C)COc1cc(F)cc(-c2ccc(C(=O)NS(=O)(=O)c3cccc(N)n3)c(N3CC(C)CC3(C)C)n2)c1 (centres unmarked) [Compound 555, N-[(6-amino-2-pyridyl)sulfonyl]-6-(3-fluoro-5-isobutoxy-phenyl)-2-(2,2,4-trimethylpyrrolidin-1-yl)pyridine-3-carboxamide] the EC30 was “+++ (“+++” means <3 uM)”.
For Cn1ccc2cccc(Oc3nc(C(C)(C)C)ccc3C(=O)NS(=O)(=O)c3ccccc3)c21 [Compound 326, N-(benzenesulfonyl)-6-tert-butyl-2-(1-methylindol-7-yl)oxy-pyridine-3-carboxamide], the EC30 was “+++ (“+++” means <3 uM)”.
Cc1ccc(-c2nc(C(C)(C)C)ccc2C(=O)NS(=O)(=O)c2cccc(N)c2)c(C)c1 [Compound 5, N-(3-aminophenyl)sulfonyl-6-tert-butyl-2-(2,4-dimethylphenyl)pyridine-3-carboxamide] was tested, and the EC30 was “++ (“++” means between 3 uM and 10 uM)”.
For CC(C)(C)c1cc(C(=O)NS(=O)(=O)c2ccccc2)n(Cc2c(Cl)cc(Cl)cc2Cl)n1 [Compound 145, N-(benzenesulfonyl)-5-tert-butyl-2-[(2,4,6-trichlorophenyl)methyl]pyrazole-3-carboxamide], the EC30 was “+++ (“+++” means <3 uM)”.
With Cc1cc(C)c(CN2Cc3ccccc3C2C(=O)NS(=O)(=O)c2cccc(O)c2)c(C)c1 (centres unmarked) [Compound 254, N-(3-hydroxyphenyl)sulfonyl-2-[(2,4,6-trimethylphenyl)methyl]isoindoline-1-carboxamide] the EC30 was “++ (“++” means between 3 uM and 10 uM)”.
For CCc1ccc2c(c1)cc(C(=O)NS(=O)(=O)c1cccc(N)n1)n2Cc1c(C)cc(C)cc1C [Compound 179, N-[(6-amino-2-pyridyl)sulfonyl]-5-ethyl-1-[(2,4,6-trimethylphenyl)methyl]indole-2-carboxamide], the EC30 was “+++ (“+++” means <3 uM)”.
With CC(C)COc1cc(F)cc(-c2ccc(C(=O)NS(=O)(=O)c3ccccc3)c(N3CC(C)CC3(C)C)n2)c1 (centres unmarked) [Compound 620, N-(benzenesulfonyl)-6-(3-fluoro-5-isobutoxy-phenyl)-2-(2,2,4-trimethylpyrrolidin-1-yl)pyridine-3-carboxamide] the EC30 was “+++ (“+++” means <3 uM)”.
In the case of C#CC1CCCN(c2nc(-c3cc(F)cc(OCC(C)C)c3)ccc2C(=O)NS(=O)(=O)c2ccn[nH]2)C1 (centres unmarked) [Compound 431, 2-(3-ethynyl-1-piperidyl)-6-(3-fluoro-5-isobutoxy-phenyl)-N-(1H-pyrazol-5-ylsulfonyl)pyridine-3-carboxamide], the EC30 is reported as “++ (“++” means between 3 uM and 10 uM)”.
For CN=S(=O)(NC(=O)c1ccc(C(C)(C)C)nc1Oc1c(C)cc(C)cc1C)c1cccc(N)c1 (stereo not drawn) [Compound 568, N—[S-(3-aminophenyl)-N-methyl-sulfonimidoyl]-6-tert-butyl-2-(2,4,6-trimethylphenoxy)pyridine-3-carboxamide], the EC30 was “+++ (“+++” means <3 uM)”.
In the case of CC(C)COc1cc(F)cc(-c2ccc(C(=O)NS(=O)(=O)c3cccc(N)n3)c(OC3CCCOC3)n2)c1 (centres unmarked) [Compound 706, N-[(6-amino-2-pyridyl)sulfonyl]-6-(3-fluoro-5-isobutoxy-phenyl)-2-tetrahydropyran-3-yloxy-pyridine-3-carboxamide], the EC30 is reported as “+++ (“+++” means <3 uM)”.
For Cc1cc(C)c(CN2Cc3ccccc3C2(C)C(=O)NS(=O)(=O)c2ccn[nH]2)c(C)c1 (centres unmarked) [Compound 378, 1-methyl-N-(1H-pyrazol-5-ylsulfonyl)-2-[(2,4,6-trimethylphenyl)methyl]isoindoline-1-carboxamide], the EC30 was “+++ (“+++” means <3 uM)”.

Source: patent US10758534B2 (Vertex Pharmaceuticals Incorporated, priority 2014, dated 2020)
